The text below walks through data of US10208089B2, “Modulation of complement activity” (priority 2014, dated 2019).

SMILES strings stand for the structures. Starred links: 1 amine or outer side, 2 acyl side, 3 side chain; linkers in the order of their positions; H or OH if unused. Positions of bridges follow the written chain, without caps; N, C: chain ends. Non-standard residues stand in square brackets, D forms with d. Residues, ends and D or L forms follow the SMILES beside them. Trp(7-aza) = N[C@@H](Cc1c[nH]c2ncccc12)C(=O)O; mXylylene = c1cc(C[*:1])cc(C[*:2])c1; hPhe = N[C@@H](CCc1ccccc1)C(=O)O; dPhg = N[C@@H](C(=O)O)c1ccccc1; Phg = N[C@H](C(=O)O)c1ccccc1; Tle = CC(C)(C)[C@H](N)C(=O)O; NMeS = CN[C@@H](CO)C(=O)O; Nva = CCC[C@H](N)C(=O)O; Aib = CC(C)(N)C(=O)O; Sar = CNCC(=O)O

What is called IC50 is the midpoint of a concentration-inhibition curve.

Chain of C5 (P01031 19-1676): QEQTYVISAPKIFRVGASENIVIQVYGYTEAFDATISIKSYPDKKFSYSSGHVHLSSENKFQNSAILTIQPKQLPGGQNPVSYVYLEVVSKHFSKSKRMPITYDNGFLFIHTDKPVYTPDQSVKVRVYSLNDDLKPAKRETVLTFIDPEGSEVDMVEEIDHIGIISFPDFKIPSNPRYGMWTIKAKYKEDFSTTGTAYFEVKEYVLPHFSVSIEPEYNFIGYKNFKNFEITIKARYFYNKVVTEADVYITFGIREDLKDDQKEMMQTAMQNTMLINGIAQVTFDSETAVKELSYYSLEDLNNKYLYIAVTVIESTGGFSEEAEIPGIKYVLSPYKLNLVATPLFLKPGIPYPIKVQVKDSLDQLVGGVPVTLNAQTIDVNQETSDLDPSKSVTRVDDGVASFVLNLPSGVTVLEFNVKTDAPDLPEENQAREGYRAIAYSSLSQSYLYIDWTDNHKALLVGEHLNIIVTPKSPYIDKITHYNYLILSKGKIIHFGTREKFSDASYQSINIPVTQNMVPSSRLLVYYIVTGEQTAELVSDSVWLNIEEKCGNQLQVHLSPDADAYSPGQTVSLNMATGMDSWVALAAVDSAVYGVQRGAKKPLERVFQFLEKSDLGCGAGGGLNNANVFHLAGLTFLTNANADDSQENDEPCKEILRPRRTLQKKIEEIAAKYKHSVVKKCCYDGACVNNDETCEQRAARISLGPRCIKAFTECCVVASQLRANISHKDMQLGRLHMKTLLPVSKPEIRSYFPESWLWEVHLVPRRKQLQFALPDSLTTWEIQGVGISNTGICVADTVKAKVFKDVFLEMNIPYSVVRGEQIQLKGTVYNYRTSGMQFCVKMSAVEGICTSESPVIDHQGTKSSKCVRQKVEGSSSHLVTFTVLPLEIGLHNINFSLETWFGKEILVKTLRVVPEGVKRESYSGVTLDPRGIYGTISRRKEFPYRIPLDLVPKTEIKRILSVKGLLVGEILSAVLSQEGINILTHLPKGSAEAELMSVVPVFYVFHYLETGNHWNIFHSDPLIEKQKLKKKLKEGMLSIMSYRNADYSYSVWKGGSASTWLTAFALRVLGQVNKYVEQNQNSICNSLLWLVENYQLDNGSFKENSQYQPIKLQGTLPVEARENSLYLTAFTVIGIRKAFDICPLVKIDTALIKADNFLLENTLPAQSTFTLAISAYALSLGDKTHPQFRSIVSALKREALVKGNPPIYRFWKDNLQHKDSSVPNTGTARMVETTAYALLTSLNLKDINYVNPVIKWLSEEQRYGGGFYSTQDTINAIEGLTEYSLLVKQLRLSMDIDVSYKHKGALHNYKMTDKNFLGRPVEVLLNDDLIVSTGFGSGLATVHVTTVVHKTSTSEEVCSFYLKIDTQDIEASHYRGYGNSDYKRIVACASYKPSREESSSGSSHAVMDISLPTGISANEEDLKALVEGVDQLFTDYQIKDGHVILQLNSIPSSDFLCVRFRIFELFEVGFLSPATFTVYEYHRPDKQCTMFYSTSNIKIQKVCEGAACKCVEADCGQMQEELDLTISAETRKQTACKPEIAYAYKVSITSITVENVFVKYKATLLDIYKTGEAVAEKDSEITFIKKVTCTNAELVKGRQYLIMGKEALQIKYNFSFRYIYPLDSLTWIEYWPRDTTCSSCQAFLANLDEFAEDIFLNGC

One assay addresses C5 (Homo sapiens, UniProt P01031). The assay is described as follows: Human hemolysis assay (RBC lysis assay using complete human sera). Set-up: with complete human sera (Complement Technology, Tyler Tex.) and polypeptides; tissue Complement Technology, Tyler Tex; host or cells: complete human serum. It is filed as cell-based. The following applies: inhibition of lysis of antibody-sensitized sheep erythrocytes, complete human sera.
`CCC[C@H](NC(=O)[C@@H]1CSCc2cccc(c2)CSC[C@H](NC(=O)[C@H](CCC)NC(C)=O)C(=O)N[C@@H](c2ccccc2)C(=O)N[C@@H]([C@@H](C)O)C(=O)N[C@@H](Cc2c[nH]c3ncccc23)C(=O)N[C@@H](CCC(=O)O)C(=O)N[C@@H](Cc2ccc(O)cc2)C(=O)N(C)[C@@H](CO)C(=O)N1)C(N)=O` [Compound R3080, [mXylyl(2,9)]Ac-Nvl-C-Pha-T-azaTrp-E-Y-(N-Me)S-C-Nvl-NH2] (Ac-[Nva]C[Phg]T[Trp(7-aza)]EY[NMeS]C[Nva]-NH2; linker 2-9 via mXylylene): the IC50 is > 50000 nM.

As for `CC(=O)N[C@H]1CSCc2cccc(c2)CSC[C@@H](C(=O)N[C@@H](Cc2c[nH]c3ccccc23)C(=O)N[C@@H](CCC(=O)O)C(=O)N[C@@H](Cc2ccccc2)C(N)=O)NC(=O)[C@H](Cc2ccccc2)NC(=O)[C@H](CCCNC(=N)N)NC(=O)[C@H](CCC(=O)O)NC(=O)[C@H](C(C)C)NC1=O` [Compound R3125, [mXylyl(1,6)]Ac-C-V-E-R-F-C-W-E-F-NH2] (Ac-CVERFCWEF-NH2; linker 1-6 via mXylylene), the IC50 is > 100000 nM.

For `CCC[C@H](NC(=O)[C@@H]1CSCc2cccc(c2)CSC[C@H](NC(=O)[C@H](CCC)NC(C)=O)C(=O)N[C@@H](c2ccccc2)C(=O)N[C@@H]([C@@H](C)O)C(=O)N[C@@H](Cc2c[nH]c3ncccc23)C(=O)N[C@@H](CCC(N)=O)C(=O)N[C@@H](Cc2ccc(O)cc2)C(=O)N(C)[C@@H](CO)C(=O)N[C@@H](C)C(=O)N1)C(N)=O` [Compound R3098, [mXylyl(2,10)]Ac-Nvl-C-Phg-T-azaTrp-Q-Y-(N-Me)S-A-C-Nvl-NH2] (Ac-[Nva]C[Phg]T[Trp(7-aza)]QY[NMeS]AC[Nva]-NH2; linker 2-10 via mXylylene), the IC50 was > 100000 nM.

Take `CCC[C@H](NC(=O)[C@@H](NC(=O)[C@@H]1CCCN1C(=O)[C@H](Cc1ccc(O)cc1)NC(=O)[C@H](CCC(=O)O)NC(=O)[C@H](Cc1c[nH]c2ncccc12)NC(=O)[C@H](Cc1ccc(O)cc1)NC(=O)[C@@H](NC(=O)[C@H](CC(=O)O)NC(=O)[C@@H]1CSCc2cccc(c2)CSC[C@H](NC(C)=O)C(=O)N[C@@H](C(C)C)C(=O)N[C@@H](CCC(=O)O)C(=O)N[C@@H](C)C(=O)N[C@@H](Cc2ccccc2)C(=O)N1)C(C)(C)C)c1ccccc1)C(N)=O` [Compound R3153, [mXylyl(1,6)]Ac-C-V-E-A-F-C-D-Tba-Y-azaTrp-E-Y-P-Phg-Nvl-NH2] (Ac-CVEAFCD[Tle]Y[Trp(7-aza)]EYP[Phg][Nva]-NH2; linker 1-6 via mXylylene): the IC50 turned out to be 175 nM.

`CCC[C@H](NC(=O)[C@@H](NC(=O)[C@@H]1CCCN1C(=O)[C@H](Cc1ccc(O)cc1)NC(=O)[C@H](CCC(=O)O)NC(=O)[C@H](Cc1cn(C)c2ccccc12)NC(=O)[C@H](Cc1ccc(O)cc1)NC(=O)[C@@H](NC(=O)[C@H](CC(N)=O)NC(=O)[C@H](CCC(=O)O)NC(=O)[C@H](Cc1ccc(O)cc1)NC(C)=O)C(C)(C)C)c1ccccc1)C(N)=O` [Compound R3110, Ac-Y-E-N-Tbg-Y-(1-Me)W-E-Y-P-Phg-Nvl-NH2]: the IC50 is 2940 nM.

With `CCC[C@H](NC(=O)[C@@H]1CSCc2cccc(c2)CSC[C@H](NC(=O)[C@H](CCC)NC(C)=O)C(=O)N[C@@H](c2ccccc2)C(=O)NC(C)(C)C(=O)N[C@@H](Cc2c[nH]c3ncccc23)C(=O)N[C@@H](CCC(=O)O)C(=O)N[C@@H](Cc2ccc(O)cc2)C(=O)N(C)[C@@H](CO)C(=O)N[C@@H](Cc2c[nH]cn2)C(=O)N1)C(N)=O` [Compound R3096, [mXylyl(2,10)]Ac-Nvl-C-Phg-Aib-azaTrp-E-Y-(N-Me)S-H-C-Nvl-NH2] (Ac-[Nva]C[Phg][Aib][Trp(7-aza)]EY[NMeS]HC[Nva]-NH2; linker 2-10 via mXylylene), the IC50 was > 50000 nM.

Turning to `CCC[C@H](NC(=O)[C@@H]1CSCc2cccc(c2)CSC[C@H](NC(=O)[C@H](CCC)NC(C)=O)C(=O)N[C@@H](c2ccccc2)C(=O)N[C@@H]([C@@H](C)O)C(=O)N[C@@H](Cc2c[nH]c3ncccc23)C(=O)N[C@@H](CCC(=O)O)C(=O)N[C@@H](CCc2ccccc2)C(=O)N(C)[C@@H](CO)C(=O)N[C@@H](C)C(=O)N1)C(N)=O` [Compound R3095, [mXyly1(2,10)]Ac-Nvl-C-Phg-T-azaTrp-E-(homo)F-(N-Me)S-A-C-Nvl-NH2] (Ac-[Nva]C[Phg]T[Trp(7-aza)]E[hPhe][NMeS]AC[Nva]-NH2; linker 2-10 via mXylylene), the IC50 was > 50000 nM.

As to `CCC[C@H](NC(C)=O)C(=O)N[C@@H](CS)C(=O)N[C@@H](Cc1ccc(O)cc1)C(=O)N[C@@H](CC(N)=O)C(=O)N[C@@H](CC(N)=O)C(=O)N[C@H](C(=O)N[C@@H](CCC(=O)O)C(=O)N[C@@H](Cc1c[nH]c2ncccc12)C(=O)N[C@@H](CCC(=O)O)C(=O)N[C@@H](Cc1ccc(O)cc1)C(=O)N1CCC[C@H]1C(=O)N[C@H](C(=O)N[C@H](C(N)=O)C(C)(C)C)c1ccccc1)C(C)(C)C` [Compound R3004, Ac-Nvl-C-Y-N-N-Tbg-E-azaTrp-E-Y-P-Phg-Tbg-NH2] (Ac-[Nva]CYNN[Tle]E[Trp(7-aza)]EYP[Phg][Tle]-NH2), the IC50 is 53.5 nM.

In the case of `CCC[C@H](NC(=O)[C@H](NC(=O)[C@@H]1CCCN1C(=O)[C@H](Cc1ccc(O)cc1)NC(=O)[C@H](CCC(=O)O)NC(=O)[C@H](Cc1c[nH]c2ccccc12)NC(=O)[C@H](Cc1ccc(O)cc1)NC(=O)[C@@H](NC(=O)[C@H](CC(=O)O)NC(=O)[C@@H]1CSCc2cccc(c2)CSC[C@H](NC(C)=O)C(=O)N[C@@H](C)C(=O)N[C@@H](CCC(=O)O)C(=O)N[C@@H](CCCNC(=N)N)C(=O)N[C@@H](Cc2ccccc2)C(=O)N1)C(C)(C)C)c1ccccc1)C(N)=O` [Compound R3149, [mXylyl(1,6)]Ac-C-A-E-R-F-C-D-Tbg-Y-W-E-Y-P-(D-Phg)-Nvl-NH2] (Ac-CAERFCD[Tle]YWEYP[dPhg][Nva]-NH2; linker 1-6 via mXylylene), the IC50 worked out at 13.6 nM.

Regarding `CCC[C@H](NC(=O)[C@@H]1CCCN1C(=O)[C@H](CCC)NC(=O)[C@@H]1CSCc2cccc(c2)CSC[C@H](NC(=O)[C@H](CCC)NC(C)=O)C(=O)N[C@@H](Cc2ccc(O)cc2)C(=O)N[C@@H](CCC(=O)O)C(=O)N(C)CC(=O)N[C@@H](C(C)(C)C)C(=O)N[C@@H](Cc2ccc(O)cc2)C(=O)N[C@@H](Cc2c[nH]c3ncccc23)C(=O)N[C@@H](CCC(=O)O)C(=O)N1)C(N)=O` [Compound R3009, [mXylyl(2,10)]Ac-Nvl-C-Y-E-(N-Me)G-Tbg-Y-azaTrp-E-C-Nvl-P-Nvl-NH2] (Ac-[Nva]CYE[Sar][Tle]Y[Trp(7-aza)]EC[Nva]P[Nva]-NH2; linker 2-10 via mXylylene), the IC50 was > 100000 nM.

With `CCC[C@H](NC(C)=O)C(=O)N[C@H]1CSCc2cccc(c2)CSC[C@@H](C(=O)N2CCC[C@H]2C(=O)N[C@H](C(=O)N[C@H](C(N)=O)C(C)(C)C)c2ccccc2)NC(=O)[C@H](CCC(=O)O)NC(=O)[C@H](Cc2c[nH]c3ncccc23)NC(=O)[C@H](CCC(=O)O)NC(=O)[C@H](C(C)(C)C)NC(=O)[C@H](CC(N)=O)NC(=O)[C@H](CC(N)=O)NC(=O)[C@H](Cc2ccc(O)cc2)NC1=O` [Compound R3127, [mXylyl(2,10)]Ac-Nvl-C-Y-N-N-Tbg-E-azaTrp-E-C-P-Pha-Tbg-NH2] (Ac-[Nva]CYNN[Tle]E[Trp(7-aza)]ECP[Phg][Tle]-NH2; linker 2-10 via mXylylene), the IC50 was > 75000 nM.

On to `CCC[C@H](NC(=O)[C@H](NC(=O)[C@@H]1CCCN1C(=O)[C@H](Cc1ccc(O)cc1)NC(=O)[C@H](CCC(=O)O)NC(=O)[C@H](Cc1c[nH]c2ncccc12)NC(=O)[C@H](Cc1ccc(O)cc1)NC(=O)[C@@H](NC(=O)[C@H](CC(=O)O)NC(=O)[C@@H]1CSCc2cccc(c2)CSC[C@H](NC(C)=O)C(=O)N[C@@H](C(C)C)C(=O)N[C@@H](CCC(=O)O)C(=O)N[C@@H](C)C(=O)N[C@@H](Cc2ccccc2)C(=O)N1)C(C)(C)C)c1ccccc1)C(N)=O` [Compound R3154, [mXylyl(1,6)]Ac-C-V-E-A-F-C-D-Tbg-Y-azaTrp-E-Y-P-(D-Phg)-Nvl-NH2] (Ac-CVEAFCD[Tle]Y[Trp(7-aza)]EYP[dPhg][Nva]-NH2; linker 1-6 via mXylylene), for which the IC50 worked out at 592 nM.

Turning to `CCC[C@H](NC(=O)[C@@H]1CSCc2cccc(c2)CSC[C@H](NC(=O)[C@H](CCC)NC(C)=O)C(=O)N[C@@H](c2ccccc2)C(=O)N[C@H](C)C(=O)N[C@@H](Cc2c[nH]c3ncccc23)C(=O)N[C@@H](CCC(=O)O)C(=O)N[C@@H](Cc2ccc(O)cc2)C(=O)N(C)[C@@H](CO)C(=O)N[C@@H](Cc2c[nH]cn2)C(=O)N1)C(N)=O` [Compound R3133, [mXylyl(2,10)]Ac-Nvl-C-Phg-(D-Ala)-azaTrp-E-Y-(N-Me)S-H-C-Nvl-NH2] (Ac-[Nva]C[Phg][dA][Trp(7-aza)]EY[NMeS]HC[Nva]-NH2; linker 2-10 via mXylylene), the IC50 was > 75000 nM.

Turning to `CCC[C@H](NC(=O)[C@@H]1CSCc2cccc(c2)CSC[C@H](NC(=O)[C@H](CCC)NC(C)=O)C(=O)N[C@@H](c2ccccc2)C(=O)N[C@@H]([C@@H](C)O)C(=O)N[C@@H](Cc2c[nH]c3ncccc23)C(=O)N[C@@H](CCC(=O)O)C(=O)N[C@@H](Cc2ccc(O)cc2)C(=O)N(C)[C@@H](CO)C(=O)N[C@@H](Cc2c[nH]cn2)C(=O)NCC(=O)N1)C(N)=O` [Compound R3101, [mXylyl(2,10)]Ac-Nvl-C-Phg-T-azaTrp-E-Y-(N-Me)S-A-H-G-Nvl-NH2] (Ac-[Nva]C[Phg]T[Trp(7-aza)]EY[NMeS]HGC[Nva]-NH2; linker 2-11 via mXylylene), the IC50 is > 100000 nM.

Consider `CCC[C@H](NC(=O)[C@@H]1CSCc2cccc(c2)CSC[C@H](NC(=O)[C@H](CCC)NC(C)=O)C(=O)N[C@@H](c2ccccc2)C(=O)N[C@@H]([C@@H](C)O)C(=O)N[C@@H](Cc2c[nH]c3ncccc23)C(=O)N[C@@H](CCC(=O)O)C(=O)N[C@@H](Cc2ccc(O)cc2)C(=O)N2CCC[C@H]2C(=O)N[C@@H](Cc2c[nH]cn2)C(=O)N1)C(N)=O` [Compound R3102, [mXylyl(2,10)]Ac-Nvl-C-Phg-T-azaTrp-E-Y-P-H-C-Nvl-NH2] (Ac-[Nva]C[Phg]T[Trp(7-aza)]EYPHC[Nva]-NH2; linker 2-10 via mXylylene), for which the IC50 came to 978 nM.

The assay is the same for the next values; noted with them: variants of R3021, R3002 or R3008.
As for `CC(=O)N[C@H]1CSCc2cccc(c2)CSC[C@@H](C(=O)N[C@@H](Cc2c[nH]c3ccccc23)C(=O)N[C@@H](CCC(=O)O)C(=O)N[C@@H](Cc2ccccc2)C(N)=O)NC(=O)[C@H](Cc2ccccc2)NC(=O)[C@H](CCCNC(=N)N)NC(=O)[C@H](CCC(=O)O)NC(=O)[C@H](C(C)C)NC1=O` [Compound R3125, [mXylyl(1,6)]Ac-C-V-E-R-F-C-W-E-F-NH2] (Ac-CVERFCWEF-NH2; linker 1-6 via mXylylene), the “ability to inhibit red blood cell lysis compared with the parent polypeptide (in words)” value is “decrease in the ability”.

The assay is the same for the next values; noted with them: variants of R3021 with internal amino acid deletions; inhibition of red blood cell lysis.
For the compound `CC(=O)N[C@H]1CSCc2cccc(c2)CSC[C@@H](C(=O)N[C@@H](Cc2c[nH]c3ccccc23)C(=O)N[C@@H](CCC(=O)O)C(=O)N[C@@H](Cc2ccccc2)C(N)=O)NC(=O)[C@H](Cc2ccccc2)NC(=O)[C@H](CCCNC(=N)N)NC(=O)[C@H](CCC(=O)O)NC(=O)[C@H](C(C)C)NC1=O` [Compound R3125, [mXylyl(1,6)]Ac-C-V-E-R-F-C-W-E-F-NH2] (Ac-CVERFCWEF-NH2; linker 1-6 via mXylylene), the IC50 was > 100000 nM.
